Data: patent US7524975B2, “Peroxisome proliferator activated receptor ligand and process for producing the same” (Kaneka Corporation, priority 2001, dated 2009)

Target: T1, mouse PPARγ ligand-binding site (Mus musculus, UniProt P37238)
T1 construct: expressed in transfected cells; host or cells: CV-1 cells (African green monkey kidney)
T1 sequence (P37238 174-475 isoform P37238-2): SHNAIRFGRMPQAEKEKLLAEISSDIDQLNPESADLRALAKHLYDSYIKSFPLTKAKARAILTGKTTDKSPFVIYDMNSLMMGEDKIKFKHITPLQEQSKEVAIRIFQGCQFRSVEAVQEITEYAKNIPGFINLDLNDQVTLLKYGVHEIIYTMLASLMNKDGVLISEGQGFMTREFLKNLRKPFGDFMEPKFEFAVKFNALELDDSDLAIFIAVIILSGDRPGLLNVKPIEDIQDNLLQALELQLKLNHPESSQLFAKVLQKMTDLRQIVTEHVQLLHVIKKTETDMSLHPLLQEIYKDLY
Assay: Measurement of PPARγ ligand activity (GAL4 chimera luciferase reporter in CV-1 cells)
Type: cell-based
Conditions: for PPARγ ligand activity: CV-1 cells, 24 hours, specific activity relative to untreated control (DMSO) = 1.00; for PPARγ ligand activity compared with positive control troglitazone (in words): compared with 0.5 μM troglitazone
Protocol: CV-1 cells (cultured cells derived from the kidney of a male African green monkey) were inoculated on a 96-well culture plate in a concentration of 6×10^3 cells/well and incubated at 37° C. in 5% CO2 for 24 hours. The medium used was DMEM (Dulbecco's Modified Eagle Medium: GIBCO) containing 10% FBS (fetal bovine serum), 10 ml/L penicillin and streptomycin solution (containing 5000 IU/ml and 5,000 μg/ml, respectively: GIBCO) and 37 mg/L ascorbic acid (Wako Pure Chemical Industries, Ltd.). […] 4xUASg-luc is a reporter plasmid comprising four GAL4 response sequences (UASg) integrated into a region upstream of a luciferase gene. At about 24 hours after transfection, the medium was exchanged with a sample-containing medium, and the cells were cultured for 24 hours (n=4). The sample-containing medium was prepared by dissolving a sample in dimethyl sulfoxide (DMSO) in an amount of 1/1000 based on the medium, while for the untreated control, DMSO in an amount of 1/1000 based on the medium was used in place of the sample. After the cells were washed with a Ca- and Mg-containing phosphate buffered physiological saline (PBS+), LucLite (Packard) was added thereto, and the intensity of luciferase luminescence was measured with a TopCount microplate scintillation/luminescence counter (Packard).
As the control group, pM (plasmid from which the PPARγ ligand-binding site gene was removed) was measured in place of pM-mPPARγ in the same manner as for the measurement group. For each sample, the ratio (measurement group/control group) of the average luminescence intensity of the measurement group (n=4) to that of the control group was calculated, and the specific activity relative to the activity of the untreated control was regarded as the PPARγ ligand activity of the sample.

Compound	PPARγ ligand activity (added concentration 2 μg/ml)	PPARγ ligand activity (added concentration 5 μg/ml)	PPARγ ligand activity (added concentration 10 μg/ml)	PPARγ ligand activity compared with positive control troglitazone (in words)
O=c1c(O)c(-c2ccc(O)c(O)c2)oc2cc(O)cc(O)c12 [Quercetin, quercetin, reference compound]	1.15	1.72	1.70	not recognized to have a PPARγ ligand activity
CC1(C)[C@@H](O)CC[C@]2(C)[C@H]3C(=O)C=C4[C@@H]5C[C@@](C)(C(=O)O)CC[C@]5(C)CC[C@@]4(C)[C@]3(C)CC[C@@H]12 [Glycyrrhetinic acid, glycyrrhetinic acid, reference compound]	0.97	0.95	0.97	not recognized to have a PPARγ ligand activity
CC(C)=CCc1c(O)cc2oc(-c3ccc(O)cc3)c(O)c(=O)c2c1O [Compound 15, Licoflavonol]	1.44	2.27	4.07	–
C=CC(C)(C)c1cc(/C=C/C(=O)c2ccc(O)cc2)c(OC)cc1O [Compound 24, Licochalcone A]	4.02	4.14	4.16	–
CC(C)=CCc1cc(C(=O)CC(=O)c2cc(CC=C(C)C)c(O)cc2O)ccc1O [Compound 27, Glycyrdione A]	1.44	2.49	3.05	–
CC(C)=CCc1cc(-c2coc3cc(O)cc(O)c3c2=O)cc(O)c1O [Compound 17, Glycyrrhisoflavone]	1.78	3.05	3.20	–
CC(C)=CCc1cc(-c2coc3c(CC=C(C)C)c(O)cc(O)c3c2=O)cc(O)c1O [Compound 3, Glyurallin B]	1.28	1.96	2.73	–
COc1c(/C=C/C(=O)c2ccc(O)cc2)ccc(O)c1CC=C(C)C [Compound 26, Licochalcone C]	1.84	2.20	3.71	–

Further lines, with some results ahead:

PPARγ ligand activity (added concentration 2 μg/ml)	PPARγ ligand activity (added concentration 5 μg/ml)	PPARγ ligand activity (added concentration 10 μg/ml)	Compound	PPARγ ligand activity compared with positive control troglitazone (in words)
1.86	2.37	3.47	COc1c(-c2ccc(O)cc2)oc2cc(O)cc(O)c2c1=O [Compound 14, Kaempferol3-O-methylester]	–
1.86	2.66	3.15	CC1(C)C=Cc2cc(-c3coc4cc(O)cc(O)c4c3=O)cc(O)c2O1 [Compound 12, Semilicoisoflavone B]	–
1.61	2.46	1.69	COc1ccc(C2COc3c(ccc4c3C=CC(C)(C)O4)C2)c(O)c1O (centres unmarked) [Compound 22, 3′-Hydroxyl-4′-O-methylglabridin]	–
1.78	3.44	2.89	CC1(C)C=Cc2c(O)ccc(C3=Cc4ccc(O)cc4OC3)c2O1 [Compound 19, Glabrene]	–
3.22	3.28	4.06	COc1cc2c(c(OC)c1CC=C(C)C)CC(c1ccc(O)cc1O)CO2 (centres unmarked) [Compound 11, Glyasperin D]	–
1.64	2.15	1.98	CC1(C)C=Cc2c(ccc3c2OC[C@@H](c2ccc(O)cc2O)C3)O1 [Compound 18, Glabridin]	–
1.25	1.55	2.13	COc1ccc(C2COc3c(ccc4c3C=CC(C)(C)O4)C2)c(O)c1 (centres unmarked) [Compound 21, 4′-O-Methylglabridin]	–
2.01	3.45	4.68	COc1cc(O)cc2c1C(=O)C(c1cc(O)c3c(c1)C=CC(C)(C)O3)CO2 (centres unmarked) [Compound 9, Glycyrrhisoflavanone]	–
2.90	3.73	4.41	COc1c2c(cc(O)c1CC=C(C)C)OCC(c1ccc(O)cc1O)=C2 [Compound 7, Dehydroglyasperin C]	–
